Article PMC13198257, “An aerosolized dual-action autotaxin inhibitor-PPARγ agonist for the treatment of pulmonary fibrosis” (Cell Reports Medicine, 2026)

System: lung gene expression
Assay: RNA sequencing of lung tissue (BLM/EL244 vs BLM)
Format: in vivo, mouse
Protocol: RNA quality was assessed using an Agilent TapeStation 4150 with the High Sensitivity […] ScreenTape (Agilent), according to the manufacturer’s protocols. For library preparation, the QuantSeq 3’mRNA-Seq Library Prep Kit (Lexogen) was used according to manufacturer’s instructions. Briefly, 500 ng of RNA from each sample was used for first-strand synthesis, followed by RNA template removal, and second-strand synthesis initiated by random primers. In-line barcodes were introduced at this step, and this was followed by magnetic bead-based purification. The resulting libraries were amplified for 15 cycles and re-purified, with quantity and quality assessed on a Qubit 4 Fluorometer with the Invitrogen Qubit dsDNA HS Assay and an Agilent Tapestation 4150 with the High Sensitivity D1000 assay kit, respectively. The quantified libraries were pooled equimolarly; 50ng of total library mix was used for Adapter Conversion PCR Amplification using the Universal Library Conversion Kit (App-A), Version: V1.0 (MGI Tech Co., Ltd.), according to the manufacturer’s instructions.
The quantity and quality of the purified adapter conversion PCR (AC-PCR) product were evaluated on a Qubit 4 Fluorometer with the Invitrogen Qubit dsDNA HS Assay and on an Agilent Tapestation 4150 with the High Sensitivity D1000 assay kit, respectively. This was followed by DNA denaturation, Single-Strand Circularisation, Enzymatic Digestion, Enzymatic Digestion Product Cleanup and Quality Control steps on 1 pmol of AC-PCR product, according to the Universal Library Conversion Kit (App-A) User Manual (Version: A3).
Finally, 60 fmol of ssCirDNA were used for DNB preparation and sequencing on a DNBSEQ-G400 platform at the BSRC Alexander Fleming Genomics Facility, using a G400 App-A FCS SE100 High-throughput Sequencing Set (MGI Tech Co., Ltd.), according to the manufacturer’s instructions.
Alignment of the FASTQ files was performed against the mouse genome build mm10 using a custom Bash script.[143] Read counting on the 3′ UTRs and differential expression analysis were conducted using the metaseqR2 bioconductor package.[144] Genes corresponding to the following biotypes were excluded: polymorphic_pseudogene, processed_transcript, pseudogene, IG_V_pseudogene, misc_RNA, IG_C_gene, IG_J_gene, IG_D_gene, IG_LV_gene, TR_V_gene, TR_V_pseudogene, TEC, and processed_pseudogene. Gene counts were normalized with DESEQ[145] through metaseqR2. Genes with more than 10 counts in at least 50% of the samples were kept for further processing. For differential expression analysis, the PANDORA algorithm[146] was used to estimate a meta p-value integrating the results from the DESEQ, DESEQ2,[147] edgeR,[148] limma,[149] NBPSeq,[150] and NOISeq[151] algorithms. All additional parameters were set to default values.
Pathway enrichment analysis was performed for the Gene Ontology Biological process (BP) and Molecular Function (MF) terms through GeneCodis 4.[152] The volcano plots, scatterplots, Venn diagrams, and dot plots were generated using the ggplot2 Bioconductor package.

## O=C1NC(=O)C(Cc2ccc(OCCC3CCN(C(=O)OCc4cc(Cl)cc(Cl)c4)CC3)cc2)S1 (stereo not drawn) [EL244, 3,5-dichlorobenzyl 4-(2-(4-((2,4-dioxothiazolidin-5-yl)methyl)phenoxy)ethyl)piperidine-1-carboxylate]
DEG Igfbp3, nFC: normalised fold change
  Igfbp3 log2 nFC BLM/EL244 vs BLM: 1.75
DEG Igfbp6, nFC: normalised fold change
  Igfbp6 log2 nFC BLM/EL244 vs BLM: 1.68
DEG Il6ra, nFC: normalised fold change
  Il6ra log2 nFC BLM/EL244 vs BLM: 0.84
DEG Ildr2
  log2 nFC BLM/EL244 vs BLM: -1.32
DEG Inmt, nFC: normalised fold change
  Inmt log2 nFC BLM/EL244 vs BLM: 1.34
DEG Iqca, nFC: normalised fold change
  Iqca log2 nFC BLM/EL244 vs BLM: 0.87
DEG Iqgap3
  log2 nFC BLM/EL244 vs BLM: -2.41
DEG Itga2b, nFC: normalised fold change
  Itga2b log2 nFC BLM/EL244 vs BLM: 1.10
DEG Itga8, nFC: normalised fold change
  Itga8 log2 nFC BLM/EL244 vs BLM: 0.88
DEG Itm2a
  log2 nFC BLM/EL244 vs BLM: -1.25
DEG Jdp2, nFC: normalised fold change
  Jdp2 log2 nFC BLM/EL244 vs BLM: 0.71
DEG Kcne2, nFC: normalised fold change
  Kcne2 log2 nFC BLM/EL244 vs BLM: 1.32
DEG Kcnn4
  log2 nFC BLM/EL244 vs BLM: -1.27
DEG Kdelr3
  log2 nFC BLM/EL244 vs BLM: -1.25
DEG Kif14
  log2 nFC BLM/EL244 vs BLM: -1.56
DEG Kif20a
  log2 nFC BLM/EL244 vs BLM: -2.52
DEG Klf3, nFC: normalised fold change
  Klf3 log2 nFC BLM/EL244 vs BLM: 0.69
DEG Klf4, nFC: normalised fold change
  Klf4 log2 nFC BLM/EL244 vs BLM: 0.72
DEG Klf9, nFC: normalised fold change
  Klf9 log2 nFC BLM/EL244 vs BLM: 0.85
DEG Klf15, nFC: normalised fold change
  Klf15 log2 nFC BLM/EL244 vs BLM: 1.42
DEG Klrc1, nFC: normalised fold change
  Klrc1 log2 nFC BLM/EL244 vs BLM: 1.38
DEG Kndc1, nFC: normalised fold change
  Kndc1 log2 nFC BLM/EL244 vs BLM: 1.05
DEG Knstrn
  log2 nFC BLM/EL244 vs BLM: -2.52
DEG Kntc1
  log2 nFC BLM/EL244 vs BLM: -1.39
DEG Krt79, nFC: normalised fold change
  Krt79 log2 nFC BLM/EL244 vs BLM: 1.75
DEG Lama1
  log2 nFC BLM/EL244 vs BLM: -2.43
DEG Ldb3, nFC: normalised fold change
  Ldb3 log2 nFC BLM/EL244 vs BLM: 1.52
DEG Lncpint, nFC: normalised fold change
  Lncpint log2 nFC BLM/EL244 vs BLM: 1.06
DEG Lrat, nFC: normalised fold change
  Lrat log2 nFC BLM/EL244 vs BLM: 1.15
DEG Lrrc74b, nFC: normalised fold change
  Lrrc74b log2 nFC BLM/EL244 vs BLM: 1.02
DEG Ltbp2
  log2 nFC BLM/EL244 vs BLM: -1.44
DEG Ltbp4, nFC: normalised fold change
  Ltbp4 log2 nFC BLM/EL244 vs BLM: 0.81
DEG Lum
  log2 nFC BLM/EL244 vs BLM: -1.32
DEG Lyve1, nFC: normalised fold change
  Lyve1 log2 nFC BLM/EL244 vs BLM: 0.96
DEG Map3k6, nFC: normalised fold change
  Map3k6 log2 nFC BLM/EL244 vs BLM: 0.95
DEG Mapt, nFC: normalised fold change
  Mapt log2 nFC BLM/EL244 vs BLM: 0.89
DEG Mark1
  log2 nFC BLM/EL244 vs BLM: -1.23
DEG Matk
  log2 nFC BLM/EL244 vs BLM: -1.42
DEG Mb, nFC: normalised fold change
  Mb log2 nFC BLM/EL244 vs BLM: 2.27
DEG Mcf2l, nFC: normalised fold change
  Mcf2l log2 nFC BLM/EL244 vs BLM: 0.95
DEG Mcm5
  log2 nFC BLM/EL244 vs BLM: -1.33
DEG Mdk
  log2 nFC BLM/EL244 vs BLM: -1.34
DEG Mettl7a1, nFC: normalised fold change
  Mettl7a1 log2 nFC BLM/EL244 vs BLM: 0.80
DEG Mir29c, nFC: normalised fold change
  Mir29c log2 nFC BLM/EL244 vs BLM: 0.89
DEG Mir147
  log2 nFC BLM/EL244 vs BLM: -1.44
DEG Mir6899, nFC: normalised fold change
  Mir6899 log2 nFC BLM/EL244 vs BLM: 0.84
DEG Mir6979, nFC: normalised fold change
  Mir6979 log2 nFC BLM/EL244 vs BLM: 1.18
DEG Mis18bp1
  log2 nFC BLM/EL244 vs BLM: -1.46
DEG Mmp9, nFC: normalised fold change
  Mmp9 log2 nFC BLM/EL244 vs BLM: 1.20
DEG Mmp12
  log2 nFC BLM/EL244 vs BLM: -2.48
DEG Mmp14
  log2 nFC BLM/EL244 vs BLM: -1.31
DEG Mpp3, nFC: normalised fold change
  Mpp3 log2 nFC BLM/EL244 vs BLM: 1.65
DEG Ms4a7
  log2 nFC BLM/EL244 vs BLM: -1.49
DEG Ms4a4d, nFC: normalised fold change
  Ms4a4d log2 nFC BLM/EL244 vs BLM: 1.15
DEG Msr1
  log2 nFC BLM/EL244 vs BLM: -1.44
DEG Mybpc3, nFC: normalised fold change
  Mybpc3 log2 nFC BLM/EL244 vs BLM: 2.06
DEG Mybphl, nFC: normalised fold change
  Mybphl log2 nFC BLM/EL244 vs BLM: 2.33
